Assay [1] addresses 26S proteasome non-ATPase regulatory subunit 14 (Homo sapiens, UniProt O00487). Briefly: inhibition of proteasome subunit RPN11 – biochemical, fluorescence polarization, uHTS hits, confirmation (AID 602368). The class given is functional. In general terms: Polarisation of emitted light reports the rotation of a fluorescent probe.
Assay [2] has as its target Prothrombin (Bos taurus, UniProt P00735). Briefly: thrombin protease inhibitors – biochemical, fluorescence polarization, uHTS hits, dose response (AID 602369). The assay is classed as functional.
In assay [3] the target is 72 kDa type IV collagenase (Homo sapiens, UniProt P08253). As to the kind of experiment: Dose Response validation of uHTS RPN11 inhibitor hits using a MMP-2 Fluorescence assay. The assay is classed as functional.
The target in assay [4] is Keap1/Nrf2 (Homo sapiens, UniProt Q14145). Briefly: disruptors of Keap1 binding to Nrf2 peptide – biochemical, fluorescence polarization, cherry-picked samples, dose response (AID 588683).
Assay [5] has as its system H4. As to the kind of experiment: Luminescence Cell-Based Dose Response HTS to Identify Activators of 5'UTR Stem-Loop Driven Prion Protein mRNA Translation in H4 Neuroglioblastoma Cells. [Related pubchem assays: 1829 (Project Summary), 1814 (Primary HTS)]. The assay is classed as functional. Particulars: Homo sapiens.
The target in assay [6] is T1, Corticotropin-releasing factor receptor 2/Corticotropin-releasing factor-binding protein (Homo sapiens, UniProt P24387+Q13324).
T1 sequence (Q13324 whole entry): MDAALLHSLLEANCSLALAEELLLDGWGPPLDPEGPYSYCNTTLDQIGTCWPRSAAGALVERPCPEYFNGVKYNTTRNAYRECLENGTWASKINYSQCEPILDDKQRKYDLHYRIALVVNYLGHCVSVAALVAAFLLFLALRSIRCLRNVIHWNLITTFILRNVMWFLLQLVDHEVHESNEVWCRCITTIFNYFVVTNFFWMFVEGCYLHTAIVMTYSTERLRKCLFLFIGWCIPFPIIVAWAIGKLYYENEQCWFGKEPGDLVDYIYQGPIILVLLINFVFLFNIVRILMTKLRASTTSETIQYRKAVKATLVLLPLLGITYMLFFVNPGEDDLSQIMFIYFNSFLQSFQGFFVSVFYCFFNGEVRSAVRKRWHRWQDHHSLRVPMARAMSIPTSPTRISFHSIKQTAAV
T1 sequence (P24387 whole entry): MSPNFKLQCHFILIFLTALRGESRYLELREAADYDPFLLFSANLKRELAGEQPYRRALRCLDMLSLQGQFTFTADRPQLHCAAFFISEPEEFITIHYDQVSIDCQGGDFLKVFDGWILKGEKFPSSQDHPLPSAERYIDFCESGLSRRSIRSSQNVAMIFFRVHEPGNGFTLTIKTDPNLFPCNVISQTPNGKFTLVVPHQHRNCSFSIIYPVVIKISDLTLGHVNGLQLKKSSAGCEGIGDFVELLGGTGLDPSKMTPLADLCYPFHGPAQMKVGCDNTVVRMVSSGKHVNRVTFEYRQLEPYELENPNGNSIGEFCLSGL
Briefly: activators of CRF receptor 2 with binding protein – uHTS hits, confirmation (AID 602473). The class given is functional. Particulars: read-out: EC50_Mean.

Assay [7] in a line: Luminescence Cell-Based Dose Confirmation HTS to Identify Activators of 5'UTR Stem-Loop Driven Alpha-Synuclein mRNA Translation in H4 Neuroglioblastoma Cells. [Related pubchem assays: 1829 (Project Summary), 1814 (Primary HTS)]. The class given is functional.
Assay [8] is described as follows: Luminescence Cell-Based Dose Response HTS to Identify Activators of Luciferase Translation or Activity in H4 […] Cells. [Related pubchem assays: 1829 (Project Summary), 1814 (Primary HTS)]. The class given is functional.
Assay [9] has as its system Escherichia coli. Briefly: microbe, parasite or virus in culture.
In assay [10] the target is Sentrin-specific protease 6 (Homo sapiens, UniProt Q9GZR1). The assay is classed as functional.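 Also: Luminescence-based dose-response confirmatory assay of SENP6 inhibition, following up an ultra-high-throughput screen.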
In assay [11] the target is Sentrin-specific protease 7 (Homo sapiens, UniProt Q9BQF6). The assay is classed as functional.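 Also: Luminescence-based dose-response confirmation of ultra-high-throughput screening hits, measuring inhibition of SENP7.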
In assay [12] the target is T2, Sentrin-specific protease 8 (Homo sapiens, UniProt Q96LD8).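 Also: luminescence read-out of SENP8 inhibition, dose-response confirmation following an ultra-high-throughput screen.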
T2 sequence (Q96LD8 whole entry): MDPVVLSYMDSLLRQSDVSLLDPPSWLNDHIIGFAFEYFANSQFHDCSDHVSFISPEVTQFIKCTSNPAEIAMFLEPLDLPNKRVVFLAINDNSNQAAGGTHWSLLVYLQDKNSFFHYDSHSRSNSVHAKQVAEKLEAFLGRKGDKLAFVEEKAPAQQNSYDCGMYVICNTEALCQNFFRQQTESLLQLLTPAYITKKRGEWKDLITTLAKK
The class given is functional.

Assay [13] addresses T3, Caspase-3 (Homo sapiens, UniProt P42574).
T3 sequence (P42574 whole entry): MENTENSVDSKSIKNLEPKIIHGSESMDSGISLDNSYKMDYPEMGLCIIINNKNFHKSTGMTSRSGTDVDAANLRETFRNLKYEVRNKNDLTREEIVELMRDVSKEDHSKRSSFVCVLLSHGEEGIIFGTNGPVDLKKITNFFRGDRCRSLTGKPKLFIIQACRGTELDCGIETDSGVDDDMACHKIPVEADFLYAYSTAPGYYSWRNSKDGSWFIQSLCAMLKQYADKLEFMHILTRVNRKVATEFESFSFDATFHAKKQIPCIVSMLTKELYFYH
The class given is functional.

Assay [14] has as its target Phospholipase A2 (Homo sapiens, UniProt P04054). The assay is classed as functional.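 Also: confirmatory dose-response counterscreen on phospholipase A2, testing hits that came from an ultra-high-throughput screen for ATG4B inhibitors.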
Assay [15] is described as follows: viability loss in CEM21 cells – cell-based, plate reader, dry powder, cytotoxicity control, dose response (AID 687026). The class given is functional.
Assay [16] can be described thus: HIV-1 AD8 envelope cell-cell fusion blockers – cherry-pick, dose response (AID 652062).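 Also: luciferase signal from cell-cell fusion driven by HIV-1 clade B AD8 Env; potency is for inhibitors of fusion seen as a drop in luminescence.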 The assay is classed as functional, cell-based.
Assay [17] is described as follows: blockers of HIV-1 ZM109 envelope-driven cell-cell fusion – HeLa effector, CEM target cells, luciferase, cherry-pick, dose response (AID 652058).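 Also: luciferase signal from HIV-1 Env mediated cell-cell fusion of effector and target cells.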 The class given is functional, cell-based.
A short description of assay [18]: inhibition of Env-driven cell fusion – HIV entry, plate reader, dry powder, dose response (AID 687023). The assay is classed as functional, cell-based.
Assay [19] can be described thus: blockers of HIV-1 envelope-mediated cell-cell fusion – cherry-pick, dose response (AID 652057). The assay is classed as functional, cell-based.
The target of assay [20] is Cysteine protease ATG4B (Homo sapiens, UniProt Q9Y4P1). The assay is classed as functional.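 Also: Fluorescence-based dose-response confirmation assay measuring inhibition of ATG4B activity.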
Assay [21] has as its target 5-hydroxytryptamine receptor 5A (Homo sapiens, UniProt P47898). Briefly: Counterscreen for agonists of OPRM1-OPRD1 heterodimerization: luminescence-based cell-based high throughput dose response assay to identify agonists of 5-hydroxytryptamine (serotonin) 5A receptor (HTR5A). [Related pubchem assays (depositor defined):AID504326, AID504355, AID504692, AID504904, AID504905]. The class given is functional. (In general: A counterscreen serves to expose hits that act by an unwanted route or on another target.)

Assay [22] has as its target Mu-type opioid receptor (Homo sapiens, UniProt P35372). As to the kind of experiment: Counterscreen for agonists of heterodimerization of the mu 1 (OPRM1) and delta 1 (OPRD1) opioid receptors: Luminescence-based cell-based high throughput dose response assay to identify agonists of OPRM1 homodimerization. The assay is classed as functional.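 Also: U2OS cells expressing OPRM1 and beta-arrestin as split beta-galactosidase partners.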
Assay [23] has as its target Delta-type opioid receptor (Homo sapiens, UniProt P41143). Briefly: Counterscreen for agonists of heterodimerization of the mu 1 (OPRM1) and delta 1 (OPRD1) opioid receptors: Luminescence-based cell-based high throughput dose response assay to identify agonists of OPRD1 homodimerization. [Related pubchem assays (depositor defined):AID504326, AID504355, AID504692, AID504904, AID504905]. The assay is classed as functional.

For assay [24], the target named is DNA (cytosine-5)-methyltransferase 1 (Homo sapiens, UniProt P26358). As to the kind of experiment: inhibition of DNA methylation by DNMT1 – biochemical, fluorescent molecular beacon, confirmation (AID 602386). The assay is classed as functional.
A short description of assay [25]: Luminescence Cell-Based Dose Retest to Confirm Inhibitors of Cancer Stem Cells. [Related pubchem assays (depositor defined):AID2717, AID2721]. The assay is classed as functional. Particulars: Homo sapiens.
The subject of assay [26] is Escherichia coli. Briefly: microbe, parasite or virus in culture. The source holds these as a separate data set.
Assay [27] is described as follows: viability of HCT116 lacking mutant beta-catenin – cell-based, human colon tumor, dose response (AID 1045).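 Also: HCT116 colon tumor cells with beta catenin knocked out; cells exposed to compound for 60 hours.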 The assay is classed as functional.
Assay [28] can be described thus: viability of PTEN-deleted HCT116 cells – cell-based, HCT116 PTEN knockout, dose response (AID 1047).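 Also: HCT116 colon tumor cells with PTEN knocked out; cells exposed to compound for 60 hours before readout; potency for loss of cell viability measured by luminescence.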 The class given is functional.

Calls of active or inactive are those of the source. Where only a bound is given, the exact number is not on record here.

Among the data in ChEMBL document CHEMBL1201862, “PubChem BioAssay data set” (2004) are IC50, AC50 and EC50 values, retold here.

Sequence of Delta-type opioid receptor (P41143 whole entry): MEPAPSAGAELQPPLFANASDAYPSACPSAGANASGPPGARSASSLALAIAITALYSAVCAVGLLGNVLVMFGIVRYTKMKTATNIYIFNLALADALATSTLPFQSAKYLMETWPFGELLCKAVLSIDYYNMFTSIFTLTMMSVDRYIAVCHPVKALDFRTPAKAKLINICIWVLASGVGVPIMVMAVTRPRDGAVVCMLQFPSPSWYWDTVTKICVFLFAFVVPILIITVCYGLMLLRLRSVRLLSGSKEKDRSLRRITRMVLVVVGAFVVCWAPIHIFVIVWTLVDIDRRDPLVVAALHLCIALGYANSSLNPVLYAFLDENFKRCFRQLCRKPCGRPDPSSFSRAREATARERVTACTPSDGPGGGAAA
Sequence of Mu-type opioid receptor (P35372 whole entry): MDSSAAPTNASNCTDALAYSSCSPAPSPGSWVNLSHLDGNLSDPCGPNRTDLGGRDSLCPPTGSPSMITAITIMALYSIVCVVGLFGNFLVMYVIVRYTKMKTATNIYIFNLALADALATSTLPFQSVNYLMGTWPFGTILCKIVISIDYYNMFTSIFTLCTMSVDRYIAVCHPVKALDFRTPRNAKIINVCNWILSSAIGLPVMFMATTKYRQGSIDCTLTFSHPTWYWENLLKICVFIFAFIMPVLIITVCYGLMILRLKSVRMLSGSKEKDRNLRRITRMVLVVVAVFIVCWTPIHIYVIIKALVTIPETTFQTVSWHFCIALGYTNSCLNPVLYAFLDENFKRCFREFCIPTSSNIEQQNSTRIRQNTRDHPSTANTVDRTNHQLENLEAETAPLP
Sequence of Cysteine protease ATG4B (Q9Y4P1 whole entry): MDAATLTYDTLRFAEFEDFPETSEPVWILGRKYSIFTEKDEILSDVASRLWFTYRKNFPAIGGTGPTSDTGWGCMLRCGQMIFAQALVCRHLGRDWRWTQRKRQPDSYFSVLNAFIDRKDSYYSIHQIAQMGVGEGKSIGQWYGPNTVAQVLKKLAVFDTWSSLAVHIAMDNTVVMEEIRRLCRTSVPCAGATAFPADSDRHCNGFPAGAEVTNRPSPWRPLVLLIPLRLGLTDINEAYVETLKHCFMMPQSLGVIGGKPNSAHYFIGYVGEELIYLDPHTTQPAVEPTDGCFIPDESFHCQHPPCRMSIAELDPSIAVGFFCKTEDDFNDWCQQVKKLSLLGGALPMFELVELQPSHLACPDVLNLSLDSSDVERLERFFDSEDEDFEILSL
Sequence of 72 kDa type IV collagenase (P08253 whole entry): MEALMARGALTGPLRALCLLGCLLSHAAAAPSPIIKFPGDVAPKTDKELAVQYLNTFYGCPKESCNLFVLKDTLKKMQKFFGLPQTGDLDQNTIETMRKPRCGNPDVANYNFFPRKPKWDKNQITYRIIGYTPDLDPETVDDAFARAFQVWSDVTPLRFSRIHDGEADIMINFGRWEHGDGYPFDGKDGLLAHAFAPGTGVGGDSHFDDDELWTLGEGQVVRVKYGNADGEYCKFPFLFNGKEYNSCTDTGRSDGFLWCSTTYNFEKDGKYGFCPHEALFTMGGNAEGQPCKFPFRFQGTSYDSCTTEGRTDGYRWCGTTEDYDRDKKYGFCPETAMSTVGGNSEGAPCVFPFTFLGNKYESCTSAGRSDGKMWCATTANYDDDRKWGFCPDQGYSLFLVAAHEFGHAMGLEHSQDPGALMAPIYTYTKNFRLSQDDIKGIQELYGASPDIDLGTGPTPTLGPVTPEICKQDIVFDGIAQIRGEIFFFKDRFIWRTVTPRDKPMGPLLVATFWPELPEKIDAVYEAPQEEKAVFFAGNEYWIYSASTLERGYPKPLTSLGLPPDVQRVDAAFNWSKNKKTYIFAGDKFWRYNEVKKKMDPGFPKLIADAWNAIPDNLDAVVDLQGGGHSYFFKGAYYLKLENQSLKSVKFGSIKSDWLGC
Sequence of Phospholipase A2 (P04054 whole entry): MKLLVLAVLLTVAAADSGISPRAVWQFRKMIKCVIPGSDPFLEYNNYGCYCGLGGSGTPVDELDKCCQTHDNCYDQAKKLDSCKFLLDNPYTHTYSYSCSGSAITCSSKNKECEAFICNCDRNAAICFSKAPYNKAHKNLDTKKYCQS
Sequence of 5-hydroxytryptamine receptor 5A (P47898 whole entry): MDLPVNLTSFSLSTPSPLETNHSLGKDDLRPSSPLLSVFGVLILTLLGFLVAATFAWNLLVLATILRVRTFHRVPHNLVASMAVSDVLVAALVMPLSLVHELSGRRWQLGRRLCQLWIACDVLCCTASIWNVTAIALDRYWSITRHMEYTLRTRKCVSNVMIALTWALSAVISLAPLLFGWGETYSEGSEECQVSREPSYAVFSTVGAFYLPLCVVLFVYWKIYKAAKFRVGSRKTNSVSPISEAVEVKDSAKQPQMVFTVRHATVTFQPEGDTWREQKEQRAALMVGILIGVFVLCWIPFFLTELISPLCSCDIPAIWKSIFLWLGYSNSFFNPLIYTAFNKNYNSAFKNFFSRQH
Sequence of 26S proteasome non-ATPase regulatory subunit 14 (O00487 whole entry): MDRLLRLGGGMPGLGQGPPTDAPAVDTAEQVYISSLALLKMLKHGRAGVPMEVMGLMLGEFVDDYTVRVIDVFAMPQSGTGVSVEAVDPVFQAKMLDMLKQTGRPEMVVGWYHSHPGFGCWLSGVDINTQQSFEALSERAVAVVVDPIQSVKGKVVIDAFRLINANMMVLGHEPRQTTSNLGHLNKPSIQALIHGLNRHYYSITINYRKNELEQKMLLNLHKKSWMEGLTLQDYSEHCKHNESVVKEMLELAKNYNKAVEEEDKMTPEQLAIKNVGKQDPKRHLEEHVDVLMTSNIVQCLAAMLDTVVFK
Sequence of Sentrin-specific protease 7 (Q9BQF6 whole entry): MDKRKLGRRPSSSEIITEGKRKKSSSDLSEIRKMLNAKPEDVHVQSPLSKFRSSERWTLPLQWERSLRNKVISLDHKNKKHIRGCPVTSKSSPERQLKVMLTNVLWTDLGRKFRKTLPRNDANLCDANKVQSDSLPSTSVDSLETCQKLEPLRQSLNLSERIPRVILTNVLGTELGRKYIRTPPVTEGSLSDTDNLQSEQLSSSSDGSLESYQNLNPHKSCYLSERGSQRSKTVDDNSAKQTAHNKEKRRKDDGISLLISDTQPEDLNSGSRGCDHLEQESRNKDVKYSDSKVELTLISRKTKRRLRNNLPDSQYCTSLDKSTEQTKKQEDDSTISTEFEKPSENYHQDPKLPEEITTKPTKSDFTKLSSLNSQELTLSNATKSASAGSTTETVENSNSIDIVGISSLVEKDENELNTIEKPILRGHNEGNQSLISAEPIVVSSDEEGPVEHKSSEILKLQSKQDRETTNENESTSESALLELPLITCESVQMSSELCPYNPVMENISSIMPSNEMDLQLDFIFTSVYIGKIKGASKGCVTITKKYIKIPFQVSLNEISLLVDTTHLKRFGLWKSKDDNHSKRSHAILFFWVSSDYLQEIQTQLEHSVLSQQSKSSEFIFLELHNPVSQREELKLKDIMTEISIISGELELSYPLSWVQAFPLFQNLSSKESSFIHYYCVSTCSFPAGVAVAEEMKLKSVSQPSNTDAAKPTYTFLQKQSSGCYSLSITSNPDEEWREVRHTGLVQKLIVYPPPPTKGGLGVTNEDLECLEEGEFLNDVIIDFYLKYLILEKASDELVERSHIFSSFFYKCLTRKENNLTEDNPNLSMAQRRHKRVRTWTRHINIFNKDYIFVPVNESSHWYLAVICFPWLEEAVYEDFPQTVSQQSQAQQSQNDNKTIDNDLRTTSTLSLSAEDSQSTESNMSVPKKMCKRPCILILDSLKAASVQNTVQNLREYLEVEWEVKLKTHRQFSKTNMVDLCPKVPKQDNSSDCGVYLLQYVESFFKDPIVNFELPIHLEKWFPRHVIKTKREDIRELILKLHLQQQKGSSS
Sequence of Sentrin-specific protease 6 (Q9GZR1 whole entry): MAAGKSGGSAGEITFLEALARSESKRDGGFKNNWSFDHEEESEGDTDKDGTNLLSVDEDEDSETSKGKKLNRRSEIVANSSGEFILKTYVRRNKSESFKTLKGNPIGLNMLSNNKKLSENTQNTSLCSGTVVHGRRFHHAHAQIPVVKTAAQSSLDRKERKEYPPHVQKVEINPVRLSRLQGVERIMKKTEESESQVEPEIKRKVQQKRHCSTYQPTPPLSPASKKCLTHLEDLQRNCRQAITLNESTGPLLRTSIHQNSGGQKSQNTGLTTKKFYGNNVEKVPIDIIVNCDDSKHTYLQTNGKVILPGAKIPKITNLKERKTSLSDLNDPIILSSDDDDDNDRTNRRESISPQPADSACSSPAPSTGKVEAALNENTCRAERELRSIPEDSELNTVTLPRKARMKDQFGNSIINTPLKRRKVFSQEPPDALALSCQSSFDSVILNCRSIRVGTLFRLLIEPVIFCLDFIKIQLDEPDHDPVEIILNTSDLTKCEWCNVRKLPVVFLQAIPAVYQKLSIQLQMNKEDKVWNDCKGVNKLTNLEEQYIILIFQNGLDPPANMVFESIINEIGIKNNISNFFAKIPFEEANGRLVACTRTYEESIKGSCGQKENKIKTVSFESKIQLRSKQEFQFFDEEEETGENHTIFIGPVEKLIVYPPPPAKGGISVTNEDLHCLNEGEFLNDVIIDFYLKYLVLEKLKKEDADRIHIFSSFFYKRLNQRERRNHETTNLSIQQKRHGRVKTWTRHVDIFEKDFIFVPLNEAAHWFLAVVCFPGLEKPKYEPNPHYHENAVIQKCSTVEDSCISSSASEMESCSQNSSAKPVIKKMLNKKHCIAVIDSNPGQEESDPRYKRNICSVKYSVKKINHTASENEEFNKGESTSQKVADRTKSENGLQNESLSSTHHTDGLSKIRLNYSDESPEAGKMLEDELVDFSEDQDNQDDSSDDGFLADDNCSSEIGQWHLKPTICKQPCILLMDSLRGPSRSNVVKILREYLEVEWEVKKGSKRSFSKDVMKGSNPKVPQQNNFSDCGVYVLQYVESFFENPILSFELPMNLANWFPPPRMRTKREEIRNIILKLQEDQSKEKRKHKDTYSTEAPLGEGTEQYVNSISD

Consider `COC(=O)c1sc2nc(CSc3ccc(Br)cc3)[nH]c(=O)c2c1C`, for which the IC50 (in general, the concentration needed to halve the response being measured) is 26.6 µM (active) in assay [1], 30 µM (active) in [2] and > 100 µM (inactive) in assay [3].
`O=S(=O)([N-]c1nc2ccccc2nc1-[n+]1ccc(-c2ccncc2)cc1)c1ccccc1`: the AC50 (in general, the midpoint of the concentration-response curve, whichever way the signal moves) in [4] is 31.5 µM (active). Besides, the EC50 in assay [5] was > 120 µM (not active); in [6] it was > 53 µM (inactive); in [7] it was 55 µM (active); in assay [8], 9.78 µM (active).
For `CN(C/C=C/c1ccccc1[N+](=O)[O-])Cc1ccccc1`, the AC50 in assay [9] is 42.7 µM (active).
As to `Cc1ccccc1-c1nnc(SCc2ccccc2F)o1`, the IC50 in assay [10] was 21.9 µM (active); in [11] it was 6.14 µM (active); in assay [12] it was 45.1 µM (active); in assay [13], 29.1 µM (active).
For the molecule `Cc1nnsc1NC(=O)OCc1ccccc1Cl`, the IC50 in assay [10] was 45.6 µM (active); in [11], 13 µM (active); in [12] it was 52.7 µM (active); in assay [13], 21.4 µM (active).
On to `CCOc1ccc(C(=O)C2CCN(CC(=O)Nc3ccccc3N3CCOCC3)CC2)cc1`, for which the concentration for half-maximal inhibition (IC50) in assay [14] was 11.9 µM (active); in [20] it was 13.2 µM (active). Besides, the AC50 in assay [15] is > 70 µM (inactive); in assay [16], 0.94 µM (active); in assay [17] it was 10.8 µM (active); in assay [18], 10.4 µM (active); in assay [19] it was 3.34 µM (active).
Turning to `COc1ccc(NS(=O)(=O)c2ccc(O)c(NC(=O)c3cc4c(C)nn(-c5ccc(F)cc5)c4s3)c2)cc1`, the EC50 in assay [21] is > 92.5 µM (inactive); in [22] it was > 92.5 µM (inactive); in [6], > 53 µM (inactive); in assay [23], > 92.5 µM (inactive). The IC50 in [24] was 6.92 µM (active). Further, the AC50 in [25] was 2.11 µM (active).
As to `CN(C)CCCN/C=C1\C(=O)NC(=O)N(CCc2ccccc2)C1=O`, the 50% inhibitory concentration (IC50) in assay [1] is 28.7 µM (active); in [2], 35.1 µM (active); in [3], > 100 µM (inactive).
As to `CCc1ccccc1NC(=O)CNC1CCCCC1.[O-][Cl+3]([O-])([O-])O`, the AC50 in assay [26] was 22.6 µM (active); in assay [9], 76.7 µM (active).
Take `COc1ccc2[nH]c3c(=O)n(/N=C/[C@H]4C(C)C=C(C)CC4C)c(=O)[nH]c3c2c1` (some centres not stated): the EC50 is 35.4 µM (active) in assay [27]; > 92.5 µM (inactive) in assay [21]; > 92.5 µM (inactive) in assay [22]; 30.5 µM (active) in assay [28]; > 92.5 µM (inactive) in assay [23].
Turning to `O=C(O)c1cc(N/N=C2/CC(c3ccccc3)Oc3ccccc32)ccc1Cl` (configuration not stated), the IC50 in assay [14] is 7.77 µM (active); in assay [20], 7.53 µM (active).
